Experimental data from US5484770A, “Peptide compounds which inhibit the proliferation of epidermal or epithelial stem cells” (Hafslund Nycomed Bioreg AS, priority 1988, dated 1996).
Where a SMILES comes first, the peptide text is derived from it. [ ]: non-standard residue; d: D form. pGlu = O=C1CC[C@@H](C(=O)O)N1

Tested on: haemopoiesis
Assay: inhibitory effect on haemopoiesis in vivo
Settings: time at which the inhibitory effect occurs
Text: By contrast it is also possible to prepare peptides having a metabolically labile blocking group so that slow release of the unblocked peptide can be achieved in vivo. Thus according to a further aspect of the invention we provide compounds of formula [drawing 10] wherein R^a, R^b, R^c, R^e, R^f and n are as defined for formula I, R^12 is a metabolically labile group, for example a 2-pyridylthio group, and all amino acids have the chiral form stated for formula (I).

SMILES: NCCCC[C@H](NC(=O)[C@H](CS)NC(=O)[C@H](CC(=O)O)NC(=O)[C@H](CCC(=O)O)NC(=O)[C@@H]1CCC(=O)N1)C(=O)O [Example 1, L-PYROGLUTAMYL-L-GLUTAMYL-L-ASPARTYL-L-CYSTEINYL-L-LYSINE] ([pGlu]EDCK-OH)
- inhibitory effect on haemopoiesis, occurring after: 1 days
